Measured values taken from PubChem BioAssay (NCI).
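Where inhibition never reached the appropriate level, the endpoint shown equals the highest concentration tested. Otherwise, values were interpolated linearly from a five-concentration, 48-hour dose response in 96-well plates. Definition used: TGI = concentration required for complete inhibition of growth.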 Where a SMILES comes first, the peptide text is derived from it. Bridges are numbered along the chain shown (N, C = ends). [ ]: non-standard residue; d: D form. The star is where a group is joined. PhAc = O=C(Cc1ccccc1)*

Assays:
Assay in all cases: NCI-60 cell line screen, 48 h
[1] = tested on: CAKI-1 renal
[2] = tested on: HOP-62 NSCLC
[3] = tested on: RXF 393 renal
[4] = tested on: SF-539 CNS
[5] = tested on: DLD-1 colon
[6] = tested on: DMS 114 small cell lung
[7] = tested on: DMS 273 small cell lung
[8] = tested on: HOP-18 NSCLC
[9] = tested on: LXFL 529 NSCLC
[10] = tested on: M19-MEL melanoma
[11] = tested on: XF 498 CNS
[12] = tested on: KM20L2 colon
[13] = tested on: SNB-78 CNS

SMILES	TGI [1]	TGI [2]	TGI [3]	TGI [4]	also measured
N=c1oc2c(Br)cc(Br)cc2cc1C(=O)Nc1ccccn1	> 100 µM	> 100 µM	> 100 µM	> 100 µM	
Cc1ccc2c3c(cnc2n1)C(=O)OCCN3C	> 100 µM	> 100 µM	> 100 µM	> 100 µM	
Cc1[nH]n(C2=NCCN2)c(=O)c1C	> 100 µM	> 100 µM	> 100 µM	> 100 µM	
CC1=C(C)CC(C#N)(C#N)C(C#N)(C#N)C1	> 10 µM	> 10 µM	> 6.09 µM	> 10 µM	
C=C1[C@H](OC(=O)C(C)C)[C@@H](OC(C)=O)[C@@H](OC(C)=O)C(C)(C)[C@@H]2O[C@H]2[C@@H](C)C(=O)[C@@]2(OC(C)=O)C[C@@](C)(OC(C)=O)[C@H](OC(C)=O)[C@@H]2[C@H]1OC(C)=O	> 100 µM	> 100 µM		> 100 µM	
O=c1c(-c2ccccc2)c2oc(c1-c1ccccc1)CS(=O)(=O)CCC2	96.9 µM	> 100 µM	29.5 µM	42.4 µM	TGI [5]: 58.8 µM; TGI [6]: > 100 µM; TGI [7]: 58.3 µM; TGI [8]: > 100 µM; TGI [9]: 33.7 µM; TGI [10]: 30.7 µM; TGI [11]: 24.7 µM
CC1=[N+]([O-])C(C)(C)N(N=O)C1(C)C	> 10 µM	> 10 µM	> 10 µM		
CC1(C)O[C@H]([C@H](O)c2nnc3ccc(Cl)nn23)[C@@H]([C@H]2COC(C)(C)O2)O1	> 100 µM	> 100 µM	> 100 µM	> 100 µM	
Cc1nn2c(=O)c([N+](=O)[O-])c(/C=C/c3ccco3)nc2s1	> 100 µM	> 100 µM	> 100 µM	> 100 µM	
O=C1OC2C(O)COC2(O)C1(O)C(C[N+](=O)[O-])c1ccc(Cl)cc1 (stereo not drawn)	30.1 µM	40 µM	9.21 µM	14 µM	TGI [5]: 3.93 µM; TGI [6]: 9.99 µM; TGI [7]: 9.87 µM; TGI [8]: 21.6 µM; TGI [12]: 6.17 µM; TGI [9]: 4.07 µM; TGI [10]: 6.84 µM; TGI [13]: 71.6 µM
O=C1C=CC(=O)c2c1cc([N+](=O)[O-])c1ccoc21	3.54 µM	31.8 µM	3.75 µM	69.9 µM	
Cc1ccc(-c2cc(-c3ccc(Cl)cc3)nc(/N=C3\C(=O)N(CN4CCOCC4)c4ccccc43)n2)cc1	80 µM	> 100 µM	30.9 µM	36.5 µM	
C/C(=C/c1ccccc1)CN(C(=O)/C=C\Sc1ccccc1)C(C)(C)C	> 100 µM	> 100 µM	> 100 µM	> 100 µM	
CC(C)(C)N1C(=O)c2ccccc2C1(O)C(F)(F)F (stereo not drawn)	> 100 µM	> 100 µM	> 100 µM	> 100 µM	
CC(C)/C(Cl)=N/OC(=O)Nc1cccc(C(F)(F)F)c1	3.14 µM	32.1 µM	18.9 µM		
C=CCOc1ccc(/C(N=Nc2ccc(C)cc2)=N/NC(=O)c2ccccc2)cc1OC	> 100 µM	> 100 µM			
C=CC(CBr)CCC(Br)C(C)(C)Br (stereo not drawn)	> 10 µM	> 10 µM	> 10 µM	> 10 µM	
Cc1cccc(NC(=S)Nc2ccc([N+](=O)[O-])cc2)n1	> 100 µM	> 100 µM	> 100 µM	> 100 µM	
C=C(C)CNC(=S)N(N)c1ccc(OC)cc1		> 100 µM	> 100 µM	> 100 µM	
O=C(Cc1ccccc1)N[C@@H]1COC(=O)[C@@H]2CCCN2C(=O)[C@@H]2CCCN2C1=O (PhAc-[dS]-Pro-Pro; ester 1-C)	> 100 µM	> 100 µM	> 100 µM	> 100 µM	
Cc1ccc2nc(N/N=C/c3ccc(C)s3)cc(C)c2c1	30.9 µM	31.3 µM	28.3 µM	24.4 µM	
CC1C(=NO)C(C)C(c2ccccc2)N(N=O)C1c1ccccc1 (stereo not drawn)		41.6 µM	32.7 µM	26.5 µM	
COc1ccc2oc(=Nc3ccccc3)c(C(N)=O)cc2c1	> 100 µM	98.4 µM	> 100 µM	> 100 µM	
c1ccc(N=C(N2CCOCC2)N(CCN2CCOCC2)c2ccccc2)cc1	> 100 µM	> 100 µM	> 100 µM	> 100 µM	

SMILES	TGI [1]	TGI [2]	TGI [3]	TGI [4]	also measured
CC(C)(C)OC(=O)[C@@H]1CCC(=S)N1Cc1ccccc1	> 100 µM		> 100 µM	> 100 µM	
COc1ccc(C2=Nn3c(nc4sc(C)c(C)c4c3=O)SC2)cc1	> 100 µM	> 100 µM	> 100 µM	> 100 µM	
COc1cc(C2SCC(=O)N2Cc2ccccc2)cc(OC)c1OC (stereo not drawn)	> 100 µM			> 100 µM	
Cc1c(-c2ccccc2)[nH]c2ccc(Cl)cc2c1=O	3.82 µM	50.2 µM	57.6 µM	42.9 µM	
COc1ccc(/C=N/n2c(=O)[nH]c3ccccc3c2=O)cc1	> 100 µM	> 100 µM		> 100 µM	
CCOC(=O)N1CC2(C)C=CC1C(C(=O)OC)C2 (stereo not drawn)	> 100 µM	> 100 µM	> 100 µM		
Nc1ccc(Oc2ccc(C3(c4ccc(Oc5ccc(N)cc5)cc4)C4CC5C6CC7CC5C3C(C7)C6C4)cc2)cc1	> 100 µM	> 100 µM	22.6 µM	> 100 µM	
Cn1c2c(c3ccccc31)CCN1OCC=C[C@@H](C(=O)O)[C@@H]21	> 100 µM	> 100 µM	> 100 µM	> 100 µM	
Cc1nnc2sc(Cl)nn12	43.6 µM	96 µM		47.1 µM	
C1=Nc2ccc(cc2)N=Cc2ccccc2OCc2cccc(n2)COc2ccccc21	> 100 µM	> 100 µM	36.2 µM	81.6 µM	
C=C[C@]1(O)CCC[C@]2(C)C(=O)CCC12C (stereo partly drawn)		> 100 µM	> 100 µM	> 100 µM	
CCN(CC)C(=S)SNc1ccc(S(N)(=O)=O)cc1	> 90.6 µM	> 100 µM	> 82.8 µM	> 100 µM	
O=C(CSc1nnc(Cc2ccccc2)o1)Nc1cccc(Cl)c1	> 100 µM	> 100 µM	> 100 µM	> 100 µM	TGI [5]: > 100 µM; TGI [7]: > 100 µM; TGI [8]: > 100 µM; TGI [12]: > 100 µM; TGI [9]: > 100 µM; TGI [10]: > 100 µM; TGI [13]: > 100 µM
O=C(Nc1cccc(NC(=O)C(=O)C2CCC3=C(Sc4ccccc4N3)C2=O)n1)C(=O)C1CCC2=C(Sc3ccccc3N2)C1=O (stereo not drawn)	> 100 µM		> 100 µM	55.1 µM	
COc1cccc(C(=O)Nc2c3ccccc3nc3ccccc23)c1OC	> 100 µM	> 100 µM	72.2 µM	> 100 µM	
CCc1n[nH]c(=O)n1N1C(=O)CCC1=O	> 100 µM	> 100 µM	> 100 µM		
Cc1ccc(/C=N/Nc2nc3ccccc3s2)s1	> 100 µM	89.4 µM	> 100 µM	> 100 µM	
CC1=CC=C2c3ccccc3C=CN2C(=O)C1	> 100 µM	> 100 µM		> 100 µM	
COc1ccc2c(c1)CCN=C2Cc1ccccc1CCCl	63.2 µM	> 100 µM	71.7 µM	45.8 µM	
CCOC(=O)C(NC(=O)C(CCCCNP(=O)(OCC)OCC)NC(=O)C(C)NC(C)=O)C(C)C (stereo not drawn)	> 100 µM	> 100 µM	> 100 µM	> 100 µM	
Cc1cc(=O)oc2cc(SC(=O)N(C)C)ccc12	> 100 µM	> 100 µM	> 100 µM	> 100 µM	
COc1ccc(N=Nc2c(C)c(C#N)c(=S)n(C3OC(COC(C)=O)C(OC(C)=O)C(OC(C)=O)C3OC(C)=O)c2C)cc1 (stereo not drawn)	> 100 µM	> 100 µM	> 100 µM	> 100 µM	
CC1(C)C=Cc2c(cc3oc4ccc5c(c4c(=O)c3c2O)C=CC(C)(C)O5)O1	> 100 µM	> 100 µM	> 100 µM	> 100 µM	
CC(C)C1C(=O)NC(CO)Cc2c[nH]c3c(C(c4c[nH]c5ccccc45)C(O)CO)ccc(c23)N1C (stereo not drawn)			> 100 µM	> 100 µM	TGI [5]: > 100 µM; TGI [7]: > 100 µM; TGI [8]: > 100 µM; TGI [9]: > 100 µM; TGI [10]: > 100 µM; TGI [13]: > 100 µM; TGI [11]: > 100 µM

SMILES	TGI [1]	TGI [2]	TGI [3]	TGI [4]	also measured
Cc1n[n+](CC(=O)c2ccccc2)c2sc(N)nn12	> 100 µM	> 100 µM	> 100 µM		
CCOC(=O)/C(C=Nc1c(C)n(C)n(-c2ccccc2)c1=O)=C(/O)c1ccccc1	> 100 µM	> 100 µM	> 100 µM	> 100 µM	
CCCc1cc(=O)oc2c(C=O)c(O)cc(O)c12	75.8 µM	59.7 µM	53 µM	57 µM	
O=C(NO)c1ccc(OCc2cccc(Cl)c2)cc1	37.5 µM	> 47 µM	47.6 µM	> 41.8 µM	
CCOC(=O)[C@@H]1OC(c2ccccc2)O[C@H]1C(=O)OCC		> 100 µM			
O=C1Oc2ccccc2C(=O)/C1=C/N1C(=O)/C(=C/c2ccc3c(c2)OCO3)SC1=S	36.5 µM	24.4 µM	40.2 µM	26.7 µM	
O=c1c(-c2c(-c3ccccc3)oc3ccc(Cl)cc3c2=O)c(-c2ccccc2)oc2ccc(Cl)cc12	> 100 µM	> 61.4 µM	> 100 µM	> 100 µM	
Cc1cc(N)ccc1N=Nc1ccc(S(=O)(=O)CCOS(=O)(=O)O)cc1	8.61 µM	22.6 µM	23.7 µM	6.9 µM	
CN(C)C(=S)N1C(=S)N(c2ccccc2)C(=Nc2ccccc2)C1=Nc1ccccc1	> 100 µM	> 100 µM	> 100 µM	> 100 µM	
CC(C)(Br)C(Br)CCC(=CCBr)CBr (mixture of isomers)	33.1 µM	8.89 µM	6.48 µM	10.3 µM	TGI [5]: 11.2 µM; TGI [7]: 3.51 µM; TGI [8]: 31.9 µM; TGI [9]: 11.6 µM; TGI [10]: 4.2 µM; TGI [13]: 17.1 µM
Oc1cccc(-c2ccc3c4c2O[C@H]2c5[nH]c6ccccc6c5C[C@@]5(O)[C@@H](C3)N(CC3CC3)CC[C@]425)c1	3.41 µM		2.63 µM	3.14 µM	
COC(=O)C(Cc1ccccc1)NC(=O)C(CCC(=O)OCc1ccccc1)NC(=O)OC(C)(C)C (stereo not drawn)	> 100 µM	> 100 µM	> 100 µM	> 100 µM	
Cc1c(C#N)c(N)[nH]c(=S)c1C#N	> 100 µM	> 100 µM	> 100 µM	> 100 µM	
CCCCCN1CCN(c2ncccn2)CC1	> 100 µM	> 100 µM	> 100 µM	> 100 µM	
CCOC(=O)CC(=O)C(=O)NNC1=NCCN1		> 100 µM	> 100 µM	> 100 µM	
NC(=O)NC(=O)CCC(NS(=O)(=O)c1ccccc1)C(=O)NC(N)=O (stereo not drawn)	> 100 µM	> 100 µM		> 100 µM	
CC1(C)C(C#N)=[N+]([O-])C(C)(C)N1O	> 100 µM	> 100 µM	> 100 µM	> 100 µM	
O=C(Nc1ccc(Cl)cc1)NS(=O)(=O)c1coc2ccccc2c1=O	> 10 µM	> 10 µM	> 10 µM	> 10 µM	
CCN1C(=S)n2cccc2C1CC(=O)c1ccc(Cl)cc1 (stereo not drawn)	> 100 µM	> 100 µM	> 100 µM		
O=C(NCCc1ccccc1)[C@H]1CCCC[C@@H]1CCO	> 100 µM	> 100 µM	> 100 µM	> 100 µM	
N#CC1(C#N)NC(c2cccnc2)C(C#N)(C#N)NC1c1cccnc1 (stereo not drawn)	> 100 µM	> 100 µM	> 100 µM	> 100 µM	
COc1ccc(/C=N/N=C(\N)NO)c(Cl)c1O	54.8 µM	72.1 µM	> 100 µM	46.5 µM	TGI [5]: > 100 µM; TGI [6]: > 100 µM; TGI [8]: 54.2 µM; TGI [9]: > 100 µM; TGI [10]: 53.3 µM; TGI [13]: > 100 µM
CC(=O)OCC1OC(n2c(C#N)cc(=O)[nH]c2=O)CC1OC(C)=O (stereo not drawn)	> 100 µM	> 100 µM	> 100 µM	> 100 µM	
